From patent publication US20260159520A1, “HETEROBIFUNCTIONAL COMPOUNDS AND METHODS OF TREATING DISEASE” (Halda Therapeutics OpCo, Inc., priority 2022, published 2026)

What was measured:
CDK9 = target: T1, CDK9 (Homo sapiens, UniProt P50750); assay: KdELECT binding assay, CDK9; settings: CDK9, Table 7
T1 construct: made in house; host or cells: E. coli BL21-derived host (T7 phage) or HEK-293 ('BEK-293' [sic])
Procedure: Compounds were tested using a KdELECT. Kinase-tagged T7 phage strains were prepared in an E. coli host derived from the BL21 strain. E. coli were grown to log-phase and infected with T7 phage and incubated with shaking at 32° C. until lysis. The lysates were centrifuged and filtered to remove cell debris. The remaining kinases were produced in BEK-293 cells and subsequently tagged with DNA for qPCR detection. Streptavidin-coated magnetic beads were treated with biotinylated small molecule ligands for 30 minutes at room temperature to generate affinity resins for kinase assays. The liganded beads were blocked with excess biotin and washed with blocking buffer (SeaBlock (Pierce), 1% BSA, 0.05% Tween 20, 1 mM DTT) to remove unbound ligand and to reduce non-specific binding. Binding reactions were assembled by combining kinases, liganded affinity beads, and test compounds in 1× binding buffer (20% SeaBlock, 0.17×PBS, 0.05% Tween 20, 6 mM DTT). Test compounds were prepared as 111× stocks in 100% DMSO. Kd values were determined using an 11-point 3-fold compound dilution series with three DMSO control points. All compounds for Kd measurements are distributed by acoustic transfer (non-contact dispensing) in 100% DMSO. The compounds were then diluted directly into the assays such that the final concentration of DMSO was 0.9%. All reactions performed in polypropylene 384-well plate. Each was a final volume of 0.02 mL. The assay plates were incubated at room temperature with shaking for 1 hour and the affinity beads were washed with wash buffer (lx PBS, 0.05% Tween 20). The beads were then re-suspended in elution buffer (lx PBS, 0.05% Tween 20, 0.5 μM nonbiotinylated affinity ligand) and incubated at room temperature with shaking for 30 minutes. The kinase concentration in the eluates was measured by qPCR.

[1] = test system: T-Rex 293 cell line SC3 cells lacking increased expression of androgen receptor protein; assay: Cellular growth inhibition, T-Rex 293 SC3 cells without doxycycline; format: cell-based; settings: not exposed to doxycycline, 72 hours, CellTiter-Glo 2.0
Method in brief: (§1)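 Doxycycline (10 ng/mL) was either included or omitted to toggle wild-type androgen receptor expression in SC3 cells, a T-Rex 293 clone, grown in stripped-serum, phenol red-free medium. After 72 hours with compound, viable cells were quantified by CellTiter-Glo 2.0.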

[2] = test system: T-Rex 293 cell line SC3 cells having increased expression of androgen receptor protein; assay: Cellular growth inhibition, T-Rex 293 SC3 cells with doxycycline (increased androgen receptor expression); format: cell-based; settings: with 10 ng/mL doxycycline (increased androgen receptor), 72 hours, CellTiter-Glo 2.0
Method in brief: as §1

T47D cells = assay: Cellular growth inhibition assay for T47D cells; format: cell-based; settings: Homo sapiens, 72 hours, CellTiter-Glo 2.0
Procedure: T47D cells were purchased from American Type Cell Culture (ATCC Cat #HTB-133) and then seeded on poly-D-lysine coated, black clear-bottom 384-well plates at 3000/well in 25 μL Dulbecco's Modified Eagle Medium (DMEM) supplemented with 10% w/w Fetal bovine serum (FBS), 0.2 units/mL recombinant human insulin (Gibco Cat #12585014), and 1% w/w Pen-Strep. Pen-Strep is a commercially available mixture of penicillin G and streptomycin, which is used in mammalian cell culture media to prevent bacterial contamination. Dulbecco's Modified Eagle Medium (DMEM) supplemented with 10% w/w fetal bovine serum (FBS), 0.2 units/mL recombinant human insulin, and 1% w/w Pen-Strep is herein referred to as Treatment Medium. Following seeding of cells in the plates, the plates were spun at 300×g for 30 seconds, then equilibrated to room temperature for 30 minutes, and then deposited in a humidified tissue culture incubator maintained at 37° C. with 5% CO2.
At 24 hours after seeding of the cells, dilutions of test compound were prepared in DMSO and dissolved in Treatment Medium, to achieve a final DMSO concentration of 0.5% w/w, thereby providing the Test Compound Solution. A 25 μL aliquot of the Test Compound Solution was added to cells in the well plates. An equal volume of a solution containing DMSO and Treatment Medium was used as a negative control. Following treatment of cells with Test Compound Solution or said equal volume of a solution containing DMSO and Treatment Medium, the plates were spun at 300×g for 30 seconds, and then left in an incubator for 72 hours.
At the end of the treatment duration, cell viability was quantified with CellTiter-Glo 2.0 reagent (Promega Cat #G9243). For this purpose, plates were equilibrated to room temperature for 30 minutes, and then 25 μL of CellTiter-Glo 2.0 reagent was added to cells in the plate wells. Plates were then agitated on a shaker for two minutes at 500 rpm and subsequently incubated at room temperature for 10 minutes. Following incubation, the plates were spun at 3000×g for 30 seconds, then sealed with an optical adhesive cover, and luminescence readings were measured with an EnVision Plate Reader (Perkin Elmer).
Data was normalized using zero luminescence for baseline. A four-parameter non-linear regression curve fit was applied to dose-response data in GraphPad Prism data analysis software to determine the half-maximal growth inhibitory concentration (GI50) for each test compound.

VCaP cells = assay: Cellular growth inhibition assay for VCaP cells; format: cell-based; settings: Homo sapiens, 72 hours, CellTiter-Glo 2.0

T1 sequence (P50750 whole entry): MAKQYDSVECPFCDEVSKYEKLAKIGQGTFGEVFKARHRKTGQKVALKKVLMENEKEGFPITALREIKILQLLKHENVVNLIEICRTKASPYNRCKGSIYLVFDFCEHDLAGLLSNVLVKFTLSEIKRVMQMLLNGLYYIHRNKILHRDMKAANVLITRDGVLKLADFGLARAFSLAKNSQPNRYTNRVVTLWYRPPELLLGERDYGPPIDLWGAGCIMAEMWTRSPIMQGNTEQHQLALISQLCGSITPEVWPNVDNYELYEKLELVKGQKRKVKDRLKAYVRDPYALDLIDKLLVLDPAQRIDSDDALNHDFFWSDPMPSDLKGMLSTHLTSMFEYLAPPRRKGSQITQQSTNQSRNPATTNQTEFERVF

For `CC1(C)[C@H](NC(=O)c2cnc(N3CCC(OCCOCCOCCOCCOCCNS(=O)(=O)c4ccc(Nc5ncc(Br)c(Nc6cccc(F)c6C(N)=O)n5)cc4)CC3)nc2)C(C)(C)[C@H]1Oc1ccc(C#N)c(Cl)c1` [Compound I-15], the Kd (CDK9) was greater than 2.5 µM, the GI50 [1] was greater than 3.5 µM and the GI50 [2] was greater than 3.5 µM. The GI50 (T47D cells) was 0.5 to 1.5 µM.

`CC1(C)[C@H](NC(=O)c2cnc(N3CCC(OCCCN4CCN(CCCNS(=O)(=O)c5ccc(Nc6ncc(Br)c(Nc7cccc(F)c7C(N)=O)n6)cc5)CC4)CC3)nc2)C(C)(C)[C@H]1Oc1ccc(C#N)c(Cl)c1` [Compound I-17] was tested, and the Kd (CDK9) was greater than 2.5 µM, the GI50 [1] was greater than 3.5 µM and the GI50 [2] was greater than 3.5 µM. The GI50 (T47D cells) was 1.5 to 3 µM.

For `CN(CCOCCOCCOCCOCCNS(=O)(=O)c1ccc(Nc2ncc(Br)c(Nc3cccc(F)c3C(N)=O)n2)cc1)c1ncc(C(=O)N[C@H]2C(C)(C)[C@H](Oc3ccc(C#N)c(Cl)c3)C2(C)C)cn1` [Compound I-20], the Kd (CDK9) was greater than 2.5 µM, the GI50 [1] was greater than 3.5 µM and the GI50 [2] was greater than 3.5 µM. It also gave a GI50 (T47D cells) of less than 0.5 µM.

Compound `CN(CCCN1CCN(CCCNS(=O)(=O)c2ccc(Nc3ncc(Br)c(Nc4cccc(F)c4C(N)=O)n3)cc2)CC1)c1ncc(C(=O)N[C@H]2C(C)(C)[C@H](Oc3ccc(C#N)c(Cl)c3)C2(C)C)cn1` [Compound I-22, 2-((3-(4-(3-((4-((5-bromo-4-((2-carbamoyl-3-fluorophenyl)amino)pyrimidin-2-yl)amino)phenyl)sulfonamido)propyl)piperazin-1-yl)propyl) (methyl)amino)-N-((1r,3r)-3-(3-chloro-4-cyanophenoxy)-2,2,4,4-tetramethylcyclobutyl) pyrimidine-5-carboxamide] has a Kd (CDK9) of 0.5 to 2.5 µM, a GI50 [1] greater than 3.5 µM and a GI50 [2] of 1 to 3.5 µM. It also gave a GI50 (T47D cells) of less than 0.5 µM.

Compound `CCc1cnn2c(NCc3ccc(N(C)CC4CCN(CC5CCN(c6ncc(C(=O)N[C@H]7C(C)(C)[C@H](Oc8ccc(C#N)c(Cl)c8)C7(C)C)cn6)CC5)CC4)nc3)cc(N3CCCC[C@H]3CCO)nc12` [Compound I-59, N-((1r,3r)-3-(3-chloro-4-cyanophenoxy)-2,2,4,4-tetramethylcyclobutyl)-2-(4-((4-(((5-(((3-ethyl-5-((S)-2-(2-hydroxyethyl)piperidin-1-yl)pyrazolo[1,5-a]pyrimidin-7-yl)amino)methyl)pyridin-2-yl)(methyl)amino)methyl)piperidin-1-yl)methyl)piperidin-1-yl)pyrimidine-5-carboxamide] has a GI50 (VCaP cells) of 0.1 to 1 µM, a Kd (CDK9) of less than 0.05 µM and a GI50 [1] of 0.1 to 1 µM. For the same compound, the GI50 [2] was less than 0.1 µM and the GI50 (T47D cells) was less than 0.5 µM.

Compound `CCc1cnn2c(NCc3ccc(OCCOCCN4CC5CN(c6ncc(C(=O)N[C@H]7C(C)(C)[C@H](Oc8ccc(C#N)c(Cl)c8)C7(C)C)cn6)CC5C4)nc3)cc(N3CCCC[C@H]3CCO)nc12` (some centres unmarked) [Compound I-62] has a GI50 (VCaP cells) of 0.1 to 1 µM, a Kd (CDK9) of 0.05 to 0.5 µM and a GI50 [1] of 0.1 to 1 µM. For the same compound, the GI50 [2] was less than 0.1 µM.

For `CCc1cnn2c(NCc3ccc(OCCOC4CCN(C5CN(c6ncc(C(=O)N[C@H]7C(C)(C)[C@H](Oc8ccc(C#N)c(Cl)c8)C7(C)C)cn6)C5)CC4)nc3)cc(N3CCCC[C@H]3CCO)nc12` [Compound I-63], the GI50 (VCaP cells) was less than 0.1 µM, the Kd (CDK9) was less than 0.05 µM and the GI50 [1] was less than 0.1 µM. It also gave a GI50 [2] of less than 0.1 µM.

`COc1cc(F)ccc1-c1ccnc2[nH]c(C3CCN(CCOCCOC4CCN(c5ncc(C(=O)N[C@H]6C(C)(C)[C@H](Oc7ccc(C#N)c(Cl)c7)C6(C)C)cn5)CC4)CC3)cc12` [Compound I-69] was tested, and the GI50 (VCaP cells) was 0.1 to 1 µM, the Kd (CDK9) was less than 0.05 µM and the GI50 [1] was 0.1 to 1 µM. It also gave a GI50 [2] of 0.1 to 1 µM and a GI50 (T47D cells) of 1.5 to 3 µM.

With `COc1cc(F)ccc1-c1ccnc2[nH]c(C3CCN(CCOCCOCCOCCOC4CCN(c5ncc(C(=O)N[C@H]6C(C)(C)[C@H](Oc7ccc(C#N)c(Cl)c7)C6(C)C)cn5)CC4)CC3)cc12` [Compound I-70] the GI50 (VCaP cells) was 0.1 to 1 µM, the Kd (CDK9) was 0.05 to 0.5 µM and the GI50 [1] was 1 to 3.5 µM. The GI50 [2] was 1 to 3.5 µM and the GI50 (T47D cells) was 1.5 to 3 µM.

In the case of `CC(C)n1cc(-c2ccnc3[nH]c(C4CCN(CCOCCOC5CCN(c6ncc(C(=O)N[C@H]7C(C)(C)[C@H](Oc8ccc(C#N)c(Cl)c8)C7(C)C)cn6)CC5)CC4)cc23)ccc1=O` [Compound I-76], the GI50 (VCaP cells) is reported as less than 0.1 µM, the Kd (CDK9) is reported as less than 0.05 µM and the GI50 [1] is reported as 0.1 to 1 µM. The GI50 [2] was 0.1 to 1 µM and the GI50 (T47D cells) was less than 0.5 µM.
